Data published in US20230084927A1, “GLUCOSE UPTAKE INHIBITORS AND USES THEREOF” (METABOMED LTD., priority 2019, published 2023).
Like-named read-outs stand apart in the source and are kept apart here.

Assays:
[1] = tested on: SDH-KO-HRAS cells (SDHB-deficient); experiment: Cellular / differential toxicity assay (CellTiter-Glo, 3 days); type: cell-based, murine; conditions: toxicity, SDH-KO cells, 3 days, CellTiter-Glo, read-out: EC50 (uM) SDH-KO-HTAS-C17
Method in brief: (§1)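 Isogenic SDHB-deficient (HRAS-transformed SDH-KO) and SDH-WT cells grown in DMEM-F12 with 1 mM glutamine and 3% FBS, plated with compound (10-point dilution from 10 uM to 0.0065 uM or lower) for 3 days at 37 °C, 5% CO2. Viability by CellTiter-Glo luminescence; EC50 calculated.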

[2] = tested on: SDH-WT cells; experiment: as above; type: cell-based, murine; conditions: toxicity, SDH-WT cells, 3 days, CellTiter-Glo, read-out: EC50 (uM) SDH-WT
Method in brief: as §1

SMILES	EC50 ([1]; Mus musculus, 72 h) [µM]	EC50 ([2]; Mus musculus, 72 h) [µM]	EC50 [2] [µM]	EC50 [1] [µM]
Cc1nc(NCCc2ccccc2)c2sc3nc4c(cc3c2n1)COC(C)(C)C4 [Compound 240]	3 to 10	> 10	–	–
CCCCCCCNc1nc(C)nc2c1sc1nc3c(cc12)COC(C)(C)C3 [Compound 241]	> 10	> 10	–	–
CCCCN(C)c1nc(C)nc2c1sc1nc3c(cc12)COC(C)(C)C3 [Compound 242]	> 10	> 10	–	–
CCCCCNc1ncnc2c1sc1nc3c(cc12)COC(C)(C)C3 [Compound 243]	3 to 10	3 to 10	–	–
Cc1nc(NN)c2sc3nc4c(cc3c2n1)COC(C)(C)C4 [Compound 244]	> 10	> 10	–	–
CC1CCN(c2ncnc3c2sc2nc4c(cc23)COC(C)(C)C4)CC1 [Compound 245]	> 10	> 10	–	–
CCCCCCCCNc1ncnc2c1sc1nc3c(cc12)COC(C)(C)C3 [Compound 246]	> 10	> 10	–	–
CC1(C)Cc2nc3sc4c(NCC5CCCO5)ncnc4c3cc2CO1 (centres unmarked) [Compound 247]	3 to 10	> 10	–	–
CCCN(CCC)c1nc(C)nc2c1sc1nc3c(cc12)COC(C)(C)C3 [Compound 248]	> 10	> 10	–	–
CCCCCCCCCNc1ncnc2c1sc1nc3c(cc12)COC(C)(C)C3 [Compound 249]	> 10	> 10	–	–
Cc1nc(NCCO)c2sc3nc4c(cc3c2n1)COC(C)(C)C4 [Compound 250]	> 10	> 10	–	–
Cc1nc(NCCC(C)C)c2sc3nc4c(cc3c2n1)COC(C)(C)C4 [Compound 251]	> 10	> 10	–	–
Cc1nc(NC(C)CCc2ccccc2)c2sc3nc4c(cc3c2n1)COC(C)(C)C4 (centres unmarked) [Compound 252]	> 10	–	> 10	–
CCN(CC)c1nc(C)nc2c1sc1nc3c(cc12)COC(C)(C)C3 [Compound 253]	> 10	> 10	–	–
Cc1nc(NCc2ccccc2)c2sc3nc4c(cc3c2n1)COC(C)(C)C4 [Compound 254]	> 10	> 10	–	–
CCCCCCCNc1ncnc2c1sc1nc3c(cc12)COC(C)(C)C3 [Compound 255]	> 10	> 10	–	–
CCCCN(CC)c1ncnc2c1sc1nc3c(cc12)COC(C)(C)C3 [Compound 256]	3 to 10	3 to 10	–	–
CC1(C)Cc2nc3sc4c(NCCO)ncnc4c3cc2CO1 [Compound 257]	> 10	> 10	–	–
CCCCN(CCCC)c1ncnc2c1sc1nc3c(cc12)COC(C)(C)C3 [Compound 258]	> 10	> 10	–	–
CC(C)(C)Nc1ncnc2c1sc1nc3c(cc12)COC(C)(C)C3 [Compound 259]	> 10	> 10	–	–
CC1(C)Cc2nc3sc4c(NCCc5ccccc5)ncnc4c3cc2CO1 [Compound 260]	> 10	> 10	–	–
CC1(C)Cc2nc3sc4c(NC5CCCCC5)ncnc4c3cc2CO1 [Compound 261]	> 10	> 10	–	–
CCCCCNc1nc(C)nc2c1sc1nc3c(cc12)COC(C)(C)C3 [Compound 262]	> 10	> 10	–	–

SMILES	EC50 ([1]; Mus musculus, 72 h) [µM]	EC50 ([2]; Mus musculus, 72 h) [µM]	EC50 [2] [µM]	EC50 [1] [µM]
Cc1nc(N2CCC(C)CC2)c2sc3nc4c(cc3c2n1)COC(C)(C)C4 [Compound 263]	> 10	> 10	–	–
Cc1nc(NC2CCCCC2)c2sc3nc4c(cc3c2n1)COC(C)(C)C4 [Compound 264]	3 to 10	> 10	–	–
Cc1nc(NC(C)CCc2ccccc2)c2sc3nc4c(cc3c2n1)COC(C)(C)C4 (centres unmarked) [Compound 265]	–	–	3 to 10	> 10
Cc1nc(NC(C)Cc2ccccc2)c2sc3nc4c(cc3c2n1)COC(C)(C)C4 (centres unmarked) [Compound 266]	> 10	3 to 10	–	–
CC1(C)Cc2nc3sc4c(NCCN5CCOCC5)ncnc4c3cc2CO1 [Compound 267]	> 10	> 10	–	–
Cc1nc(N2CCCC2)c2sc3nc4c(cc3c2n1)COC(C)(C)C4 [Compound 268]	> 10	> 10	–	–
CCCCN(CC)c1nc(C)nc2c1sc1nc3c(cc12)COC(C)(C)C3 [Compound 269]	> 10	> 10	–	–
CC1(C)Cc2nc3sc4c(N(CCO)Cc5ccccc5)ncnc4c3cc2CO1 [Compound 271]	> 10	3 to 10	–	–
Cc1nc(NC(C)c2ccccc2)c2sc3nc4c(cc3c2n1)COC(C)(C)C4 (centres unmarked) [Compound 272]	> 10	> 10	–	–
COc1ccc(CCNc2nc(C)nc3c2sc2nc4c(cc23)COC(C)(C)C4)cc1OC [Compound 273]	3 to 10	> 10	–	–
CC(Nc1ncnc2c1sc1nc3c(cc12)COC(C)(C)C3)c1ccccc1 (centres unmarked) [Compound 274]	> 10	> 10	–	–
CC1(C)Cc2nc3sc4c(N(CCO)CCO)ncnc4c3cc2CO1 [Compound 275]	> 10	> 10	–	–
CC(Cc1ccccc1)Nc1ncnc2c1sc1nc3c(cc12)COC(C)(C)C3 (centres unmarked) [Compound 276]	> 10	3 to 10	–	–
CC1(C)Cc2nc3sc4c(NCc5cccnc5)ncnc4c3cc2CO1 [Compound 277]	> 10	> 10	–	–
CN(CCO)c1ncnc2c1sc1nc3c(cc12)COC(C)(C)C3 [Compound 278]	> 10	> 10	–	–
CC1(C)Cc2nc3sc4c(N5CCC(Cc6ccccc6)CC5)ncnc4c3cc2CO1 [Compound 279]	> 10	> 10	–	–
CCN1CCN(c2ncnc3c2sc2nc4c(cc23)COC(C)(C)C4)CC1 [Compound 280]	> 10	> 10	–	–
COCCCNc1ncnc2c1sc1nc3c(cc12)COC(C)(C)C3 [Compound 281]	3 to 10	> 10	–	–
CC1CCCCN1c1ncnc2c1sc1nc3c(cc12)COC(C)(C)C3 (centres unmarked) [Compound 282]	> 10	> 10	–	–
COCCNc1ncnc2c1sc1nc3c(cc12)COC(C)(C)C3 [Compound 283]	> 10	> 10	–	–
CC1(C)Cc2nc3sc4c(NCCOCCO)ncnc4c3cc2CO1 [Compound 284]	> 10	> 10	–	–
CC(O)CN(CC(C)O)c1ncnc2c1sc1nc3c(cc12)COC(C)(C)C3 (centres unmarked) [Compound 285]	> 10	> 10	–	–
CC1(C)Cc2nc3sc4c(N5CCN(C(c6ccccc6)c6ccccc6)CC5)ncnc4c3cc2CO1 [Compound 286]	> 10	> 10	–	–

SMILES	EC50 ([1]; Mus musculus, 72 h) [µM]	EC50 ([2]; Mus musculus, 72 h) [µM]	EC50 [2] [µM]	EC50 [1] [µM]
CCN(CC)CCCNc1ncnc2c1sc1nc3c(cc12)COC(C)(C)C3 [Compound 287]	> 10	> 10	–	–
CC1(C)Cc2nc3sc4c(N5CCN(CCO)CC5)ncnc4c3cc2CO1 [Compound 288]	> 10	> 10	–	–
CCN(CCO)c1ncnc2c1sc1nc3c(cc12)COC(C)(C)C3 [Compound 289]	3 to 10	> 10	–	–
CC1(C)Cc2nc3sc4c(NCCCN5CCOCC5)ncnc4c3cc2CO1 [Compound 290]	> 10	> 10	–	–
CCC(CO)Nc1ncnc2c1sc1nc3c(cc12)COC(C)(C)C3 (centres unmarked) [Compound 291]	> 10	> 10	–	–
CN(Cc1ccccc1)c1ncnc2c1sc1nc3c(cc12)COC(C)(C)C3 [Compound 292]	> 10	> 10	–	–
CC1(C)CCc2cc3c(nc2C1)sc1c(CCC2(c4ccccc4)CCCC2)cccc13 [Compound 293]	> 10	> 10	–	–
CCCCNc1ncnc2c1sc1nc3c(cc12)COC(C)(C)C3 [Compound 294]	–	–	> 10	> 10
CC1(C)Cc2nc3sc4c(NN)ncnc4c3cc2CO1 [Compound 295]	> 10	> 10	–	–
C=CCNc1ncnc2c1sc1nc3c(cc12)COC(C)(C)C3 [Compound 296]	–	–	> 10	3 to 10
CCN(CC)c1ncnc2c1sc1nc3c(cc12)COC(C)(C)C3 [Compound 297]	3 to 10	> 10	–	–
CC1(C)Cc2nc3sc4c(N5CCCC5)ncnc4c3cc2CO1 [Compound 298]	> 10	> 10	–	–
CCC(C)Nc1ncnc2c1sc1nc3c(cc12)COC(C)(C)C3 (centres unmarked) [Compound 299]	> 10	> 10	–	–
CCCN(CCC)c1ncnc2c1sc1nc3c(cc12)COC(C)(C)C3 [Compound 300]	3 to 10	3 to 10	–	–
COc1ccc(CCn2cnc3c(sc4nc5c(cc43)COC(C)(C)C5)c2=O)cc1F [Compound 301]	> 10	> 10	–	–
CCOC(=O)C1CCc2nc3sc4c(NCCc5ccc(OC)c(F)c5)ncnc4c3cc2C1 (centres unmarked) [Compound 302]	> 10	> 10	–	–
COc1ccc(CCNc2ncnc3c2sc2nc4c(cc23)COCC4)cc1F [Compound 303]	< 1	> 10	–	–
CN1C(=O)CCC1n1cnc2ccc(CCNc3ncnc4c3sc3nc5c(cc34)COC(C)(C)C5)cc21 (centres unmarked) [Compound 304]	< 1	3 to 10	–	–
COCCOCCOCCOCc1c2c(nc3sc4c(NCCc5ccc6[nH]cnc6c5)ncnc4c13)CC(C)(C)OC2 [Compound 305]	< 1	> 10	–	–
CC1(C)Cc2nc3sc4c(NCCc5ccc6[nH]cnc6c5)ncnc4c3c(CO)c2CO1 [Compound 306]	> 10	> 10	–	–
c1ccc(-c2nc(NCCc3ccc4[nH]cnc4c3)c3sc4ncccc4c3n2)cc1 [Compound 307, N-(2-(1H-Benzo[d]imidazol-5-yl)ethyl)-2-phenylpyrido[3′,2′:4,5]thieno[3,2-d]pyrimidin-4-amine]	> 10	3 to 10	–	–
